This note sets out measurements from ChEMBL document CHEMBL3396994, “Novel 4-aryl-pyrido[1,2-c]pyrimidines with dual SSRI and 5-HT1A activity. Part 4” (Eur J Med Chem, 2015).

Series [1] has as its target T1, 5-hydroxytryptamine receptor 1A (Rattus norvegicus, UniProt P19327).
T1 sequence (P19327 whole entry): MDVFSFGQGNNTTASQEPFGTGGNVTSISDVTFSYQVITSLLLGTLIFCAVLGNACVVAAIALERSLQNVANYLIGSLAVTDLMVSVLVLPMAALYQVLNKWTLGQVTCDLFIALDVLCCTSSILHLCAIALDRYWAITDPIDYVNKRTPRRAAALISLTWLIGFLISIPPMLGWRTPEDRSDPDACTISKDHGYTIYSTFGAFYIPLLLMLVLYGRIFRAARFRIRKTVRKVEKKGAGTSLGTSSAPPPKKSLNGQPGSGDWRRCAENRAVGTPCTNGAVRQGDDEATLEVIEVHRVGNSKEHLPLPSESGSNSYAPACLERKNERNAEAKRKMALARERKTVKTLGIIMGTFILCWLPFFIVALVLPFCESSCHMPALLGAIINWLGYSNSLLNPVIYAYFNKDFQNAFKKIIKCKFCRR
In words: Displacement of [3H]8-OH-DPAT from rat brain hippocampus 5-HT1A receptor by radioligand binding assay. (In general: In a radioligand displacement assay an active substance lowers the binding of a labelled ligand.)

The target in series [2] is Sodium-dependent serotonin transporter (Rattus norvegicus, UniProt P31652). In words: Displacement of [3H]citalopram from rat brain cerebral cortex SERT by liquid scintillation counting analysis. It counts as tissue-based.
Series [3] is described as follows: Half life in human liver microsomes at 10 uM by LC/MS analysis. The class given is ADME.
Series [4] in a line: Metabolic stability in human liver microsomes assessed as compound remaining at 10 uM after 60 mins by LC/MS analysis. The class given is ADME. The note with it: read-out: Stability.

SMILES strings stand for the structures.

Sequence of Sodium-dependent serotonin transporter (P31652 whole entry): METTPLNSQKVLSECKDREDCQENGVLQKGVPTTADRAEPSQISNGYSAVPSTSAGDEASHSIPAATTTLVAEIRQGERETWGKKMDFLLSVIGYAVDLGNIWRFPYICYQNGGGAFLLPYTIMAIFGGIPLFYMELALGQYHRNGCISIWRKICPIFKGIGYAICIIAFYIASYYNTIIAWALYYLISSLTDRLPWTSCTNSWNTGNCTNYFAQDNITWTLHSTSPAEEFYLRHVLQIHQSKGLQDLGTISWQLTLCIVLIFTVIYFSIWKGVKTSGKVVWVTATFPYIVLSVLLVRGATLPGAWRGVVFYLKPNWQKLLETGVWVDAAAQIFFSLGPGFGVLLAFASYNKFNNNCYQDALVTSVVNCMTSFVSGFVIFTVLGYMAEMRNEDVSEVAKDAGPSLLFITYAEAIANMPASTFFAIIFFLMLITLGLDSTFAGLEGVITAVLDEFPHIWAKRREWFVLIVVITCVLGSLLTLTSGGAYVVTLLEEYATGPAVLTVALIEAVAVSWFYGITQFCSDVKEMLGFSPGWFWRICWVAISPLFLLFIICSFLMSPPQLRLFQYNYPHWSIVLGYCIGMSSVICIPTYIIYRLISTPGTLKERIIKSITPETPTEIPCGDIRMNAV

In general, Ki refers to a dissociation constant, usually derived from enzyme kinetics or from competition with a known ligand. Read a high Ki as lower affinity. For the molecule `COc1ccc(-c2c(=O)n(CCCCN3CC=C(c4c[nH]c5ccc(F)cc45)CC3)c(=O)n3ccccc23)cc1`, the values for the Ki in series [1] and in series [2] were 81.7 nM and 15.6 nM, respectively.
For orientation: half-life means the time needed for the level to fall by half in the phase considered. A low value points to rapid decline. With `O=c1c(-c2ccccc2)c2ccccn2c(=O)n1CCCCN1CC=C(c2c[nH]c3ccc(F)cc23)CC1`, the results for the Ki in series [1] and in series [2] were 118 nM and 27.1 nM, respectively. For the same molecule, the half-life at 10 µM in series [3] amounted to 1.37 h. Further, in series [4], the remaining at 1 h, 10 µM was determined as 63.4%.
Turning to `O=c1c(-c2ccccc2Cl)c2ccccn2c(=O)n1CCCCN1CC=C(c2c[nH]c3ccc(F)cc23)CC1`, the Ki came to 127 nM in series [1] and 5.2 nM in series [2].
`Cc1ccc(-c2c(=O)n(CCCCN3CC=C(c4c[nH]c5ccc(Cl)cc45)CC3)c(=O)n3ccccc23)cc1`: the figures for the Ki in series [1] and in series [2] were 267 nM and 408 nM, respectively. This molecule also yielded a half-life at 10 µM in series [3] of 1.41 h. In series [4], the remaining at 1 h, 10 µM was found to be 64.3%.
Take `Cc1ccc(-c2c(=O)n(CCCCN3CC=C(c4c[nH]c5ccc(Br)cc45)CC3)c(=O)n3ccccc23)cc1`: the Ki stood at 145 nM in series [1] and 949 nM in series [2].
`Cc1ccc(-c2c(=O)n(CCCCN3CCC(c4c[nH]c5ccc(F)cc45)CC3)c(=O)n3ccccc23)cc1`: the Ki was determined as 38.5 nM in series [1] and 27.4 nM in series [2].
As for `COc1ccc(-c2c(=O)n(CCCCN3CC=C(c4c[nH]c5ccc(Br)cc45)CC3)c(=O)n3ccccc23)cc1`, the Ki was 23.1 nM in series [1] and 326 nM in series [2].
With `O=c1c(-c2ccc(F)cc2)c2ccccn2c(=O)n1CCCCN1CC=C(c2c[nH]c3ccc(Br)cc23)CC1`, the Ki in series [1] was 79.1 nM; in series [2], 404 nM. Besides, the half-life at 10 µM in series [3] came to 1.03 h. Besides, the remaining at 1 h, 10 µM in series [4] was 51.4%.
With `O=c1c(-c2ccc(Cl)cc2)c2ccccn2c(=O)n1CCCCN1CCC(c2c[nH]c3ccc(F)cc23)CC1`, the Ki stood at 84.4 nM in series [1] and 25.5 nM in series [2].
With `O=c1c(-c2ccccc2F)c2ccccn2c(=O)n1CCCCN1CC=C(c2c[nH]c3ccc(Cl)cc23)CC1`, the Ki turned out to be 97.1 nM in series [1] and 435 nM in series [2].
On the same counts, the results for `O=c1c(-c2ccccc2Cl)c2ccccn2c(=O)n1CCCCN1CC=C(c2c[nH]c3ccc(Cl)cc23)CC1` are 74.4 nM and 774 nM.
The corresponding values for `O=c1c(-c2ccc(F)cc2)c2ccccn2c(=O)n1CCCCN1CCC(c2c[nH]c3ccc(F)cc23)CC1` are 12.8 nM and 19.4 nM.
The corresponding values for `Cc1ccccc1-c1c(=O)n(CCCCN2CC=C(c3c[nH]c4ccc(Br)cc34)CC2)c(=O)n2ccccc12` are 71.5 nM and 879 nM.
For `O=c1c(-c2ccccc2F)c2ccccn2c(=O)n1CCCCN1CCC(c2c[nH]c3ccc(F)cc23)CC1`, the results for the Ki in series [1] and in series [2] were 9.2 nM and 25.7 nM, respectively.
For the molecule `COc1ccccc1-c1c(=O)n(CCCCN2CC=C(c3c[nH]c4ccc(Cl)cc34)CC2)c(=O)n2ccccc12`, the Ki came to 97.8 nM in series [1] and 718 nM in series [2]. The half-life at 10 µM in series [3] turned out to be 1.13 h. Moreover, the remaining at 1 h, 10 µM in series [4] stood at 55.6%.
The corresponding values for `Cc1ccccc1-c1c(=O)n(CCCCN2CC=C(c3c[nH]c4ccc(F)cc34)CC2)c(=O)n2ccccc12` are 295 nM, 58.8 nM, 1.26 h and 60.5%.
For the molecule `O=c1c(-c2ccccc2)c2ccccn2c(=O)n1CCCCN1CCC(c2c[nH]c3ccc(F)cc23)CC1`, the Ki in series [1] is 12.4 nM; in series [2] it was 15.6 nM.
On the same counts, the results for `O=c1c(-c2ccccc2F)c2ccccn2c(=O)n1CCCCN1CC=C(c2c[nH]c3ccc(Br)cc23)CC1` are 32.5 nM and 836 nM.
Regarding `O=c1c(-c2ccc(Cl)cc2)c2ccccn2c(=O)n1CCCCN1CC=C(c2c[nH]c3ccc(F)cc23)CC1`, the Ki in series [1] was determined as 265 nM; in series [2] it was 58.2 nM. This molecule also registered a half-life at 10 µM in series [3] of 1 h. Moreover, the remaining at 1 h, 10 µM in series [4] was determined as 50.2%.
With `O=c1c(-c2ccccc2)c2ccccn2c(=O)n1CCCCN1CC=C(c2c[nH]c3ccc(Cl)cc23)CC1`, the Ki in series [1] is 126 nM; in series [2], 322 nM.
For `O=c1c(-c2ccccc2)c2ccccn2c(=O)n1CCCCN1CC=C(c2c[nH]c3ccc(Br)cc23)CC1`, the results for the Ki in series [1] and in series [2] were 40.1 nM and 840 nM, respectively. In series [3], this molecule gave a half-life at 10 µM of 1.37 h. Further, the remaining at 1 h, 10 µM in series [4] came out at 63.2%.
For `O=c1c(-c2ccccc2Cl)c2ccccn2c(=O)n1CCCCN1CCC(c2c[nH]c3ccc(F)cc23)CC1`, the figures for the Ki in series [1] and in series [2] were 15.9 nM and 88.6 nM, respectively.
On to `O=c1c(-c2ccccc2F)c2ccccn2c(=O)n1CCCCN1CC=C(c2c[nH]c3ccc(F)cc23)CC1`, for which the Ki was determined as 116 nM in series [1] and 3.9 nM in series [2].
On the same counts, the results for `Cc1ccc(-c2c(=O)n(CCCCN3CC=C(c4c[nH]c5ccc(F)cc45)CC3)c(=O)n3ccccc23)cc1` are 153 nM and 30.3 nM.
On the same counts, the results for `Cc1ccccc1-c1c(=O)n(CCCCN2CC=C(c3c[nH]c4ccc(Cl)cc34)CC2)c(=O)n2ccccc12` are 212 nM and 740 nM.
With `O=c1c(-c2ccc(Cl)cc2)c2ccccn2c(=O)n1CCCCN1CC=C(c2c[nH]c3ccc(Br)cc23)CC1`, the Ki came out at 61.6 nM in series [1] and 1000 nM in series [2].
The corresponding values for `COc1ccc(-c2c(=O)n(CCCCN3CC=C(c4c[nH]c5ccc(Cl)cc45)CC3)c(=O)n3ccccc23)cc1` are 278 nM and 312 nM.
The corresponding values for `O=c1c(-c2ccc(F)cc2)c2ccccn2c(=O)n1CCCCN1CC=C(c2c[nH]c3ccc(F)cc23)CC1` are 220 nM and 11.3 nM.
Regarding `COc1ccccc1-c1c(=O)n(CCCCN2CCC(c3c[nH]c4ccc(F)cc34)CC2)c(=O)n2ccccc12`, the Ki in series [1] stood at 5.6 nM; in series [2], 20.7 nM.
`O=c1c(-c2ccc(F)cc2)c2ccccn2c(=O)n1CCCCN1CC=C(c2c[nH]c3ccc(Cl)cc23)CC1`: the values for the Ki in series [1] and in series [2] were 106 nM and 329 nM, respectively.
On to `COc1ccccc1-c1c(=O)n(CCCCN2CC=C(c3c[nH]c4ccc(F)cc34)CC2)c(=O)n2ccccc12`, for which the Ki in series [1] is 251 nM; in series [2], 20.8 nM. Besides, the half-life at 10 µM in series [3] amounted to 1.57 h. In addition, the remaining at 1 h, 10 µM in series [4] stood at 67.9%.
As to `COc1ccccc1-c1c(=O)n(CCCCN2CC=C(c3c[nH]c4ccc(Br)cc34)CC2)c(=O)n2ccccc12`, the Ki in series [1] came out at 33.1 nM; in series [2] it was 1200 nM.
